Experimental data from patent US6489098B1, “Means and methods for monitoring nucleoside reverse transcriptase inhibitor antiretroviral therapy and guiding therapeutic decisions in the treatment of HIV/AIDS” (ViroLogic, Inc., priority 1998, dated 2002).
Values joined by “and” are separate entries in the source; they are usually repeats but may differ in a detail not shown here. Equal entries are not always repeated. “Also recorded” adds a separate entry of the source.

What was measured:
[1] = test system: HIV with M41L, L210W, T215Y plus M184V; details: cited from earlier work
[2] = test system: HIV with multiple ZDV resistance mutations; details: read-out: IC50 (high-level resistance); cited from earlier work
[3] = test system: HIV-1 RT mutant resistance test vector V75I+Q151M; assay: Phenotypic susceptibility assay, site directed RTV V75I+Q151M; type: cell-based; details: RTV with V75I+Q151M
Protocol: (§1) Resistance tests were carried out with resistance test vectors using two host cell types. Resistance test vector viral particles were produced by a first host cell (the resistance test vector host cell) that was prepared by transfecting a packaging host cell with the resistance test vector and the packaging expression vector. The resistance test vector viral particles were then used to infect a second host cell (the target host cell) in which the expression of the indicator gene is measured.
The resistance test vectors containing a functional luciferase gene cassette were constructed and host cells were transfected with the resistance test vector DNA. […] The IC50 values were determined by plotting percent drug inhibition vs. log 10 drug concentration.
(§2) Host cells were seeded in 10-cm-diameter dishes and were transfected several days after plating with resistance test vector plasmid DNA and the envelope expression vector. […] HIV capsid protein (p24) levels in the harvested cell culture media were determined by an EIA method as described by the manufacturer (SIAC; Frederick, Md.). […] The inhibitory effect of the drug was determined using the following equation: […]

[4] = test system: RTV clone 285-1 (T69SSA) versus revertant 285-1 (SSA69T); assay: Phenotypic susceptibility assay, patient 285 clone and T69SSA revertant; type: cell-based, HIV-1; details: T69SSA→SSA69T in a clone of a patient's virus
[5] = test system: HIV isolates of 13 ZDV-naive patients; details: 13 ZDV-naive patients followed for 18 to 22 months on d4T; d4T maximum; ZDV five patients; ddI three subjects; cited from earlier work
[6] = test system: HIV with RT Leu74→Val mutation; details: cited from earlier work
[7] = test system: HIV-1 RT mutant resistance test vector M41L-A62V-T69SSA-T215Y-L210W-RTV; assay: Phenotypic susceptibility assay, site directed RTV M41L+A62V+T69SSA+L210W+T215Y; type: cell-based; details: RTV with 41 + 62 + 69 + 210 + 215; 3 replicates
Protocol: as §1
The resistance test vectors containing a functional luciferase gene cassette were constructed and host cells were transfected with the resistance test vector DNA. The resistant test vectors contained patient-derived reverse transcriptase and protease sequences that were either susceptible or resistant to the antiretroviral agents, such as nucleoside reverse transcriptase inhibitors, non-nucleoside reverse transcriptase inhibitors and protease inhibitors. The resistance test vector viral particles produced by transfecting the resistance test vector DNA into host cells, either in the presence or absence of protease inhibitors, were used to infect target host cells grown either in the absence of NRTI or NNRTI or In the presence of increasing concentrations of the drug. The amount of luciferase activIty produced in infected target host cells in the presence of drug was compared to the amount of luciferase produced in infected target host cells in the absence of drug. […] The IC50 values were determined by plotting percent drug inhibition vs. log 10 drug concentration.
as §2

Nc1nc(NC2CC2)c2ncn([C@H]3C=C[C@@H](CO)C3)c2n1 [ABC, abacavir]
fold reduction in susceptibility [1]: eight fold

Cc1cn([C@H]2C[C@H](N=[N+]=[N-])[C@@H](CO)O2)c(=O)[nH]c1=O [AZT, zidovudine]
IC50 [2]: > 1000 nM

Cc1cn([C@H]2C=C[C@@H](CO)O2)c(=O)[nH]c1=O [d4T, stavudine]
effect on susceptibility (words) [3]: decreased susceptibility to d4T; also recorded: reduced d4T and AZT susceptibility
effect of reversion of the T69SSA mutation [4]: reduced d4T resistance
fold decrease in sensitivity [5]: ≤ 12 fold

Nc1ccn([C@H]2CC[C@@H](CO)O2)c(=O)n1 [ddC, zalcitabine]
fold reduction in sensitivity [6]: around ten-fold
Average fold reduction in susceptibility [7]: 2.1 fold and 2.10 fold
